The values that follow come from patent publication US9120804B2, “8-substituted 2-amino-[1,2,4] triazolo [1, 5-A] pyrazines as Syk tryrosine kinase inhibitors and GCN2 serin kinase inhibitors” (Merck Patent GmbH, priority 2012, dated 2015).

The test has as its target T1, SYK (Homo sapiens, UniProt P43405).
T1 construct: 2.5 nM SYK, 400 nM Biotin-Aha-Aha-KEDPDYEWPSAKK
The test is described as follows: SYK flash plate assay (enzyme assay). Type of test: biochemical. The procedure:
The kinase assay is performed either as 384-well Flashplate assay (for e.g. Topcount measurement) or as 384-well Image-Flashplate assay (for LEADseeker measurement).
2.5 nM SYK, 400 nM Biotin-Aha-Aha-KEDPDYEWPSAKK
and 10 μM ATP (spiked with 0.3 μCi 33P-ATP/well) are incubated in a total volume of 50 μl (60 mM Hepes, 10 mM MgCl2, 1.2 mM Dithiothreitol, 0.02% Brij35, 0.1% BSA, pH 7.5) with or without test compound for 1 hours at 30° C. The reaction is stopped with 25 μl 200 mM EDTA. After 30 Min at 30° C. the liquid is removed and each well washed thrice with 100 μl 0.9% sodium chloride solution. Non-specific reaction is determined in presence of […] Staurosporine. Radioactivity is measured with Topcount (when using Flashplates) or with LEADseeker (when using Image-Flashplates) respectively. Results (e.g. IC50-values) are calculated with program tools provided by the IT-department (e.g. Symyx Assay Explorer, Genedata Screener). In Vivo Assays CIA
By IC50 is commonly meant the concentration at which inhibition is half-maximal. A low value points to inhibition by little substance. As to `CC1(C)C(=O)Nc2cc(Nc3nc4c(N5CCCC(C(N)=O)C5)nccn4n3)ccc21` (stereo not drawn) [E113, 1-[2-(3,3-dimethyl-2-oxo-2,3-dihydro-1H-indol-6-ylamino)-[1,2,4]triazolo[1,5-a]pyrazin-8-yl]-piperidine-3-carboxylic acid amide], the 50% inhibitory concentration (IC50) is less than 0.1 µM.
`CC1(C)C(=O)Nc2cc(Nc3nc4c(N5CCCC(=O)CC5)nccn4n3)ccc21` [E72, 3,3-dimethyl-6-[8-(4-oxo-azepan-1-yl)-[1,2,4]triazolo[1,5-a]pyrazin-2-ylamino]-1,3-dihydro-indol-2-one] displayed a 50% inhibitory concentration (IC50) of less than 0.1 µM.
Compound `CC1(C)C(=O)Nc2cc(Nc3nc4c(NS(=O)(=O)c5ccc(N)cc5)nccn4n3)ccc21` [E118, 4-amino-N-[2-(3,3-dimethyl-2-oxo-2,3-dihydro-1H-indol-6-ylamino)-[1,2,4]triazolo[1,5-a]pyrazin-8-yl]benzenesulfonamide] displayed an IC50 of 3 to 50 µM.
In turn, `CC1(C)C(=O)Nc2cc(Nc3nc4c(N5CCc6ccc(C#N)cc65)nccn4n3)ccc21` [E134, 1-[2-(3,3-dimethyl-2-oxo-2,3-dihydro-1H-indol-6-ylamino)-[1,2,4]triazolo[1,5-a]pyrazin-8-yl]-2,3-dihydro-1H-indole-6-carbonitrile] came in with a 50% inhibitory concentration (IC50) of less than 0.1 µM.
In turn, `CC1(C)C(=O)Nc2cc(Nc3nc4c(N5CCC(CO)C5)nccn4n3)ccc21` (stereo not drawn) [E30, 6-[8-(3-hydroxymethyl-pyrrolidin-1-yl)-[1,2,4]triazolo[1,5-a]pyrazin-2-ylamino]-3,3-dimethyl-1,3-dihydro-indol-2-one] had an IC50 of 3 to 50 µM.
`CC1(C)C(=O)Nc2cc(Nc3nc4c(N5CC6CCC(C5)O6)nccn4n3)ccc21` [E67, 3,3-dimethyl-6-[8-(8-oxa-3-aza-bicyclo[3.2.1]oct-3-yl)-[1,2,4]triazolo[1,5-a]pyrazin-2-ylamino]-1,3-dihydro-indol-2-one] showed an IC50 of less than 0.1 µM.
Turning to `CC1(C)CCNc2cc(Nc3nc4c(N5CC[C@@]6(CNC(=O)C6)C5)nccn4n3)ccc21` [E101, (R)-7-[2-(4,4-dimethyl-1,2,3,4-tetrahydro-quinolin-7-ylamino)-[1,2,4]triazolo[1,5-a]pyrazin-8-yl]-2,7-diaza-spiro[4.4]nonan-3-one], the 50% inhibitory concentration (IC50) is less than 0.1 µM.
In turn, `CC1(C)CCNc2cc(Nc3nc4c(N5CCC6(CCNC6)C5)nccn4n3)ccc21` (stereo not drawn) [E9, [8-(2,7-diaza-spiro[4.4]non-2-yl)-[1,2,4]triazolo[1,5-a]pyrazin-2-yl]-(4,4-dimethyl-1,2,3,4-tetrahydro-quinolin-7-yl)-amine] displayed a half-inhibitory concentration (IC50) of less than 0.1 µM.
As for `CC1(C)C(=O)Nc2cc(Nc3nc4c(NCCN)nccn4n3)ccc21` [E110, 6-[8-(2-amino-ethylamino)-[1,2,4]triazolo[1,5-a]pyrazin-2-ylamino]-3,3-dimethyl-1,3-dihydro-indol-2-one], the half-maximal inhibitory concentration (IC50) is 0.3 to 3 µM.
`CC1(C)C(=O)Nc2cc(Nc3nc4c(N5CCC6(CNC(=O)CO6)C5)nccn4n3)ccc21` (stereo not drawn) [E120, 2-[2-(3,3-dimethyl-2-oxo-2,3-dihydro-1H-indol-6-ylamino)-[1,2,4]triazolo[1,5-a]pyrazin-8-yl]-6-oxa-2,9-diaza-spiro[4.5]decan-8-one] showed an IC50 of 0.3 to 3 µM.
Take `CC1(C)CC(=O)Nc2cc(Nc3nc4c(N5CC[C@]6(CC(=O)NC6=O)C5)nccn4n3)ccc21` [E49, (S)-7-[2-(4,4-dimethyl-2-oxo-1,2,3,4-tetrahydro-quinolin-7-ylamino)-[1,2,4]triazolo[1,5-a]pyrazin-8-yl]-2,7-diaza-spiro[4.4]nonane-1,3-dione]: the half-inhibitory concentration (IC50) is less than 0.1 µM.
`CC1(C)C(=O)Nc2cc(Nc3nc4c(O[C@@H]5CN[C@@H](c6ccccc6C(F)(F)F)C5)nccn4n3)ccc21` [E82, 3,3-dimethyl-6-{8-[(3S,5R)-5-(2-trifluoroinethyl-phenyl)-pyrrolidin-3-yloxy]-[1,2,4]triazolo[1,5-a]pyrazin-2-ylamino}-1,3-dihydro-indol-2-one] came in with a 50% inhibitory concentration (IC50) of 3 to 50 µM.
Turning to `CC1(C)C(=O)Nc2cc(Nc3nc4c(NS(=O)(=O)c5ccccc5)nccn4n3)ccc21` [E111, N-[2-(3,3-dimethyl-2-oxo-2,3-dihydro-1H-indol-6-ylamino)-[1,2,4]triazolo[1,5-a]pyrazin-8-yl]-benzenesulfonamide], the IC50 is 0.3 to 3 µM.
For `CC1(C)C(=O)Nc2cc(Nc3nc4c(-c5cnc6c(c5)CCCO6)nccn4n3)ccc21` [E116, 6-[8-(3,4-Dihydro-2H-pyrano[2,3-b]pyridin-6-yl)-[1,2,4]triazolo[1,5-a]pyrazin-2-ylamino]-3,3-dimethyl-1,3-dihydro-indol-2-one], the IC50 was less than 0.1 µM.
The compound `CNS(=O)(=O)C1CCN(c2nccn3nc(Nc4ccc5c(c4)NC(=O)C5(C)C)nc23)CC1` [E38, 1-[2-(3,3-dimethyl-2-oxo-2,3-dihydro-1H-indol-6-ylamino)-[1,2,4]triazolo[1,5-a]pyrazin-8-yl]-piperidine-4-sulfonic acid methylamide] displayed an IC50 of 0.1 to 0.3 µM.
`CC1(C)C(=O)Nc2cc(Nc3nc4c(N5CCC(C(N)=O)CC5)nccn4n3)ccc21` [E40, 1-[2-(3,3-dimethyl-2-oxo-2,3-dihydro-1H-indol-6-ylamino)-[1,2,4]triazolo[1,5-a]pyrazin-8-yl]-piperidine-4-carboxylic acid amide] showed a half-maximal inhibitory concentration (IC50) of less than 0.1 µM.
In turn, `CC1(C)C(=O)Nc2cc(Nc3nc4c(N5C[C@H](O)C[C@H]5c5ccccc5)nccn4n3)ccc21` [E24, 6-[8-((2S,4R)-4-hydroxy-2-phenyl-pyrrolidin-1-yl)-[1,2,4]triazolo[1,5-a]pyrazin-2-ylamino]-3,3-dimethyl-1,3-dihydro-indol-2-one] gave an IC50 of 3 to 50 µM.
As for `Cn1cc(-c2nccn3nc(Nc4ccc(CS(=O)(=O)O)c(N)c4)nc23)cn1` [E36, {2-amino-4-[8-(1-methyl-1H-pyrazol-4-yl)-[1,2,4]triazolo[1,5-a]pyrazin-2-ylamino]-phenyl}-methanesulfonic acid], the IC50 lay within 0.1 to 0.3 µM.
`CC1(C)CC(=O)Nc2cc(Nc3nc4c(N5CCC6(CC(=O)NC6=O)C5)nccn4n3)ccc21` (stereo not drawn) [E7, 7-[2-(4,4-dimethyl-2-oxo-1,2,3,4-tetrahydro-quinolin-7-ylamino)-[1,2,4]triazolo[1,5-a]pyrazin-8-yl]-2,7-diaza-spiro[4.4]nonane-1,3-dione] registered a half-inhibitory concentration (IC50) of less than 0.1 µM.
Take `CC1(C)C(=O)Nc2cc(Nc3nc4c(-c5cnn(C6CCOCC6)c5)nccn4n3)ccc21` [E148, 3,3-dimethyl-6-{8-[1-(tetrahydro-pyran-4-yl)-1H-pyrazol-4-yl]-[1,2,4]triazolo[1,5-a]pyrazin-2-ylamino}-1,3-dihydro-indol-2-one]: the IC50 was less than 0.1 µM.
The compound `Cn1ncc2ccc(Nc3nc4c(-c5ccccc5-c5ccccc5)nccn4n3)cc21` [C20, (8-Biphenyl-2-yl-[1,2,4]triazolo[1,5-a]pyrazin-2-yl)-(1-methyl-1H-indazol-6-yl)-amine] came in with an IC50 of 0.3 to 3 µM.
The compound `CC1(C)C(=O)Nc2cc(Nc3nc4c(N5CCC(C(=O)NC6CC6)C5)nccn4n3)ccc21` (stereo not drawn) [E4, 1-[2-(3,3-dimethyl-2-oxo-2,3-dihydro-1H-indol-6-ylamino)-[1,2,4]triazolo[1,5-a]pyrazin-8-yl]-pyrrolidine-3-carboxylic acid cyclopropylamide] yielded an IC50 of 0.1 to 0.3 µM.
`CC1(C)C(=O)Nc2cc(Nc3nc4c(N5CCC(C(N)=O)C5)nccn4n3)ccc21` (stereo not drawn) [E3, 1-[2-(3,3-dimethyl-2-oxo-2,3-dihydro-1H-indol-6-ylamino)-[1,2,4]triazolo[1,5-a]pyrazin-8-yl]-pyrrolidine-3-carboxylic acid amide] had an IC50 of less than 0.1 µM.
`COc1cc(Nc2nc3c(N4CCN(C(=O)OC(C)(C)C)CC4)nccn3n2)cc(OC)c1` [D1, 4-[2-(3,5-dimethoxy-phenylamino)-[1,2,4]triazolo[1,5-a]pyrazin-8-yl]-piperazine-1-carboxylic acid tert-butyl ester] displayed a half-maximal inhibitory concentration (IC50) of 3 to 50 µM.
Consider `CC1(C)C(=O)Nc2cc(Nc3nc4c(N[C@H]5C[C@H](N)C5)nccn4n3)ccc21` [C97, 6-[8-(trans-3-amino-cyclobutylamino)-[1,2,4]triazolo[1,5-a]pyrazin-2-ylamino]-3,3-dimethyl-1,3-dihydro-indol-2-one], for which the half-maximal inhibitory concentration (IC50) lay within 0.3 to 3 µM.
For the compound `COc1cccc(Nc2nc3c(-c4ccccc4-c4ccccc4)nccn3n2)c1` [C7, (8-Biphenyl-2-yl-[1,2,4]triazolo[1,5-a]pyrazin-2-yl)-(3-methoxy-phenyl)-amine], the IC50 lay in the range of 0.3 to 3 µM.
Compound `COc1ccc(Nc2nc3c(-c4ccccc4-c4ccccc4)nccn3n2)cc1OC` [C5, (8-Biphenyl-2-yl-[1,2,4]triazolo[1,5-a]pyrazin-2-yl)-(3,4-dimethoxy-phenyl)-amine] had an IC50 of 0.1 to 0.3 µM.
With `CC1(C)C(=O)Nc2cc(Nc3nc4c(N5CCC(CNCC(F)(F)F)C5)nccn4n3)ccc21` (stereo not drawn) [E65, 3,3-dimethyl-6-(8-{3[(2,2,2-trifluoro-ethylamino)-methyl]-pyrrolidin-1-yl}-[1,2,4]triazolo[1,5-a]pyrazin-2-ylamino)-1,3-dihydro-indol-2-one] the figure was 0.1 to 0.3 µM.
Compound `CC1(C)CCNc2cc(Nc3nc4c(N5CC[C@]6(CNC(=O)C6)C5)nccn4n3)ccc21` [E86, (S)-7-[2-(4,4-dimethyl-1,2,3,4-tetrahydro-quinolin-7-ylamino)-[1,2,4]triazolo[1,5-a]pyrazin-8-yl]-2,7-diaza-spiro[4.4]nonan-3-one] registered a half-inhibitory concentration (IC50) of 0.1 to 0.3 µM.
Take `CC1(C)C(=O)Nc2cc(Nc3nc4c(N5CCC6(CNC(=O)O6)C5)nccn4n3)ccc21` (stereo not drawn) [E112, 3,3-dimethyl-6-[8-(2-oxo-1-oxa-3,7-diaza-spiro[4.4]non-7-yl)-[1,2,4]triazolo[1,5-a]pyrazin-2-ylamino]-1,3-dihydro-indol-2-one]: the IC50 was less than 0.1 µM.
